Laboratory results from ChEMBL document CHEMBL5463722, “Data for DCP probe BI-5524” (2023).

Assays:
Rattus norvegicus [1] = organism: Rattus norvegicus; test: BZD (central) Eurofins-Cerep binding assay; settings: Compound concentration 10.0 uM
[2] = biological target: Melatonin receptor type 1A (Homo sapiens) (UniProt P48039); test: MT1 (ML1A) Eurofins-Cerep binding assay; design: ligand concentration 0.01 nM; settings: Compound concentration 10.0 uM
[3] = biological target: Galanin receptor type 2 (Homo sapiens) (UniProt O43603); test: Inhibitor of GAL2/H in the Eurofins SafetyScreen44 (BI) by Radioactive Assay (Old_Cerep_22); settings: Compound concentration 10.0 uM
[4] = biological target: P2X purinoceptor (Oryctolagus cuniculus) (UniProt G1U3D6); test: Activity against P2X/R in the Eurofins SafetyScreen44 (BI) by Others (Old_Cerep_29); settings: Rattus norvegicus; Compound concentration 10.0 uM
Chain of P2X purinoceptor (Oryctolagus cuniculus) (G1U3D6 as listed by the source): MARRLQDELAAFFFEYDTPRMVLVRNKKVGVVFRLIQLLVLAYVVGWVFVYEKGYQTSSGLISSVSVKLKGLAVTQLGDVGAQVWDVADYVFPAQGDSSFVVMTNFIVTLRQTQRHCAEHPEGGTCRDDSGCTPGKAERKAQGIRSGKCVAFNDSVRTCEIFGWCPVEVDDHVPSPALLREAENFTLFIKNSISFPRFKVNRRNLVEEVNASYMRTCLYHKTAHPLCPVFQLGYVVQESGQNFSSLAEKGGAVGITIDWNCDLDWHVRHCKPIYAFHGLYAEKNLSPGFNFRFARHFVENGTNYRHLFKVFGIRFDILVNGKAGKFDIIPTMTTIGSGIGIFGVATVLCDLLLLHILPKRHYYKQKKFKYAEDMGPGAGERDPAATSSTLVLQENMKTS

[5] = biological target: 5-hydroxytryptamine receptor 7 (Homo sapiens) (UniProt P34969); test: 5-HT7 Eurofins-Cerep binding assay; design: ligand concentration 4 nM; settings: Compound concentration 10.0 uM
Rattus norvegicus [6] = organism: Rattus norvegicus; test: Cl-channel (GABA-gated) Eurofins-Cerep binding assay; design: ligand concentration 3 nM; settings: Compound concentration 10.0 uM
[7] = biological target: Type-1 angiotensin II receptor (Homo sapiens) (UniProt P30556); test: AT1 Eurofins-Cerep binding assay
Chain of Type-1 angiotensin II receptor (Homo sapiens) (P30556 whole entry): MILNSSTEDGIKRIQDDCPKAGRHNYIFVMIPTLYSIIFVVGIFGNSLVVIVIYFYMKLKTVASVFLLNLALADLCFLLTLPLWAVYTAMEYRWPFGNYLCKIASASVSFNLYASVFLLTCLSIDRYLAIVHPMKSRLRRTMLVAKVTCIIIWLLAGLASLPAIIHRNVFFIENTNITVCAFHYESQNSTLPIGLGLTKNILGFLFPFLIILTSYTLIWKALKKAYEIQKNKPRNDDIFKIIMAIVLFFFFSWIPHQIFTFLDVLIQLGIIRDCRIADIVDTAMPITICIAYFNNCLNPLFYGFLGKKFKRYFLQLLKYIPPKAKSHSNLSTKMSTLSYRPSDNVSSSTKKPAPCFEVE

[8] = biological target: Adenosine receptor A1 (Homo sapiens) (UniProt P30542); test: A1 Eurofins-Cerep binding assay; design: ligand concentration 1 nM
Chain of Adenosine receptor A1 (Homo sapiens) (P30542 whole entry): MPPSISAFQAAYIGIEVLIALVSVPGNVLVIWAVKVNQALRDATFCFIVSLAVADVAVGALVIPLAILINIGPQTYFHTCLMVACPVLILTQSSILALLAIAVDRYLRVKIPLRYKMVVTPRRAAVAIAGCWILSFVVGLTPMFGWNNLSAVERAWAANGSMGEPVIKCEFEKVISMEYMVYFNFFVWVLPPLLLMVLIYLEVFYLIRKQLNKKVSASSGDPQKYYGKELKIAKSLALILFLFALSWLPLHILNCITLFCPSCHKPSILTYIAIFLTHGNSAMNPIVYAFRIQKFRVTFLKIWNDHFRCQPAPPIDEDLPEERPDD

[9] = biological target: C-X-C chemokine receptor type 2 (Homo sapiens) (UniProt P25025); test: CXCR2 (IL-8B) Eurofins-Cerep binding assay; settings: Compound concentration 10.0 uM
[10] = biological target: Tumor necrosis factor receptor superfamily member 1A (Homo sapiens) (UniProt P19438); test: TNF-alpha Eurofins-Cerep binding assay; settings: Compound concentration 10.0 uM
[11] = biological target: Kappa-type opioid receptor (Rattus norvegicus) (UniProt P34975); test: Inhibitor of KAPPA/R in the Eurofins SafetyScreen44 (BI) by Radioactive Assay (Old_Cerep_24); settings: Compound concentration 10.0 uM
[12] = biological target: Bombesin receptor (Rattus norvegicus) (UniProt P52500+P24053+Q8K418); test: Activity against BOMBESIN/NS in the Eurofins SafetyScreen44 (BI) by Radioactive Assay (Old_Cerep_9); format: protein assay
Chain of Bombesin receptor (Rattus norvegicus) (P24053 whole entry, looked up): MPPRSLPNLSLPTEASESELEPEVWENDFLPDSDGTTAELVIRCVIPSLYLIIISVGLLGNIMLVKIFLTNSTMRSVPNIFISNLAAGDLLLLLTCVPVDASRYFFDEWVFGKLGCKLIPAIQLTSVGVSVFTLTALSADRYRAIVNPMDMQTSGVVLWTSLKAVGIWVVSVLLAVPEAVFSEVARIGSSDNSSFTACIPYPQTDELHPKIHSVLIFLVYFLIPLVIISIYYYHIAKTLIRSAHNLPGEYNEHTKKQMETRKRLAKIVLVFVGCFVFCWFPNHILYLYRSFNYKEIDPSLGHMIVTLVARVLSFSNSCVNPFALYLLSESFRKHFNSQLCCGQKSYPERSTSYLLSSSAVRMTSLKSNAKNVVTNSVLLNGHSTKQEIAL
Chain of Bombesin receptor (Rattus norvegicus) (P52500 whole entry, looked up): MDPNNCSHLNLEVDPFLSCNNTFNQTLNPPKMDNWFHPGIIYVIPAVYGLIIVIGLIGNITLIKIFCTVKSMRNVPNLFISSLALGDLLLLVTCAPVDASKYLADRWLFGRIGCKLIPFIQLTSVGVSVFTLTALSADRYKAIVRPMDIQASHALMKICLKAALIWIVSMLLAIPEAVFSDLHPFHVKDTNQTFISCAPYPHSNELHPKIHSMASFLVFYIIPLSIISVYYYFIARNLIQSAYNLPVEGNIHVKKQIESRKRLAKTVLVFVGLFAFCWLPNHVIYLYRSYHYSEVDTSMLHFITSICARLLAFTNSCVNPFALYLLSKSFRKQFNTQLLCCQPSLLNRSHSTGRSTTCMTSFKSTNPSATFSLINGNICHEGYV
Chain of Bombesin receptor (Rattus norvegicus) (Q8K418 whole entry, looked up): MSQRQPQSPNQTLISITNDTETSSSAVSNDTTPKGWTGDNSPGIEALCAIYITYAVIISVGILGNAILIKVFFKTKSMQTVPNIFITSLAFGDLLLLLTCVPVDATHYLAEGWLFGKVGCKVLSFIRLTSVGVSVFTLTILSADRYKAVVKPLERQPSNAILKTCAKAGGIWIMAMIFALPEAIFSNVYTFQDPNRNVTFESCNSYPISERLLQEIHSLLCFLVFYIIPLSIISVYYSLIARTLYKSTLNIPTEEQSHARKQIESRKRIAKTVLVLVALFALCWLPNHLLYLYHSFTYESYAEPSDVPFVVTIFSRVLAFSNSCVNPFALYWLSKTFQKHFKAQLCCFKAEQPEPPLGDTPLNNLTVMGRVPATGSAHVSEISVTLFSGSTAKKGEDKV

[13] = biological target: Type-2 angiotensin II receptor (Homo sapiens) (UniProt P50052); test: Activity against AT2/H in the Eurofins SafetyScreen44 (BI) by Radioactive Assay (Old_Cerep_7)
Chain of Type-2 angiotensin II receptor (Homo sapiens) (P50052 whole entry): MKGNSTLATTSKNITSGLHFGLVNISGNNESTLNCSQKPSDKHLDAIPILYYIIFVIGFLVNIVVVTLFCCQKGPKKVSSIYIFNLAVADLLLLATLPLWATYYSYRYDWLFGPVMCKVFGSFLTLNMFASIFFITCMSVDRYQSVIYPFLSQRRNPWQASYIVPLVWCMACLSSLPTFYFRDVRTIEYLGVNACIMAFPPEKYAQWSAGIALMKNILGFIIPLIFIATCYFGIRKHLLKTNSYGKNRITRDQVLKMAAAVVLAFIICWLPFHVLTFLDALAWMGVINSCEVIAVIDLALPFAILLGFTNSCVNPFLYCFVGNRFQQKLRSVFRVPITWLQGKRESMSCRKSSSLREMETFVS

[14] = biological target: Cannabinoid receptor 1 (Homo sapiens) (UniProt P21554); test: Activity against CB1/CENTR/H in the Eurofins SafetyScreen44 (BI) by Radioactive Assay (Old_Cerep_12)
Chain of Cannabinoid receptor 1 (Homo sapiens) (P21554 whole entry): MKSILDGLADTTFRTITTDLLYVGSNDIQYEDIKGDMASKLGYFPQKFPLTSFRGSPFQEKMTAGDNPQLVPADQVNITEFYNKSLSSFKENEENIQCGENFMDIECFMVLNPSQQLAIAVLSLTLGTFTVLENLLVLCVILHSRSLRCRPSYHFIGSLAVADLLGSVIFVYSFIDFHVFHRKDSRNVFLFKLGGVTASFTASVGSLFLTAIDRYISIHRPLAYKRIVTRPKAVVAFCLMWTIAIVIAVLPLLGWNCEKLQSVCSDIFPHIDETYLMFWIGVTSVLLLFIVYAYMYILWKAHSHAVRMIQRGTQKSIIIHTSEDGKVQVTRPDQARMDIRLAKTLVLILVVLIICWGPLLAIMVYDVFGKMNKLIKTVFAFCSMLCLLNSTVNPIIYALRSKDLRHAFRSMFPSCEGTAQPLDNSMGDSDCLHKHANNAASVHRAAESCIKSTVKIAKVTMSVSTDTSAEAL

[15] = biological target: Neurotensin receptor type 1 (Homo sapiens) (UniProt P30989); test: Activity against NT1/H in the Eurofins SafetyScreen44 (BI) by Radioactive Assay (Old_Cerep_27); settings: Compound concentration 10.0 uM
[16] = biological target: Sodium-dependent serotonin transporter (Homo sapiens) (UniProt P31645); test: Activity against 5HTTRANS/H in the Eurofins SafetyScreen44 (BI) by Radioactive Assay (Old_Cerep_4); settings: Compound concentration 10.0 uM
[17] = biological target: Muscarinic acetylcholine receptor M4 (Homo sapiens) (UniProt P08173); test: M4 Eurofins-Cerep binding assay; settings: Compound concentration 10.0 uM
[18] = biological target: Small conductance calcium-activated potassium channel protein 1 (Rattus norvegicus) (UniProt P70606); test: Inhibitor of K+/CA+/R in the Eurofins SafetyScreen44 (BI) by Radioactive Assay (Old_Cerep_23); settings: Compound concentration 10.0 uM
[19] = biological target: B2 bradykinin receptor (Homo sapiens) (UniProt P30411); test: Activity against B2/HUM in the Eurofins SafetyScreen44 (BI) by Radioactive Assay (Old_Cerep_8)
Chain of B2 bradykinin receptor (Homo sapiens) (P30411 whole entry): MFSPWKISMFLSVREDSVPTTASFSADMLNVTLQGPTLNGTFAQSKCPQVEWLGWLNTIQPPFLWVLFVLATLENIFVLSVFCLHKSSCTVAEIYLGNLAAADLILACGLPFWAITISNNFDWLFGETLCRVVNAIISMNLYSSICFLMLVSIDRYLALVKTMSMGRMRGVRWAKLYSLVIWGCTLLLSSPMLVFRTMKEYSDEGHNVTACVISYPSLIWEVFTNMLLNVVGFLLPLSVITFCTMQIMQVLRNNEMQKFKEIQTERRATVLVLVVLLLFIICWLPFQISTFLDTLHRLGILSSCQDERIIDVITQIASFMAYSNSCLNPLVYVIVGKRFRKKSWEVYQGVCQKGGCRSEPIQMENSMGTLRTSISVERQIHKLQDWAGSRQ

[20] = biological target: Neuropeptide Y receptor type 1 (Homo sapiens) (UniProt P25929); test: Y1 Eurofins-Cerep binding assay; design: ligand concentration 0.025 nM; settings: Compound concentration 10.0 uM
[21] = biological target: Muscarinic acetylcholine receptor M5 (Homo sapiens) (UniProt P08912); test: M5 Eurofins-Cerep binding assay; settings: Compound concentration 10.0 uM
[22] = biological target: Gastrin/cholecystokinin type B receptor (Homo sapiens) (UniProt P32239); test: Activity against CCKB/H in the Eurofins SafetyScreen44 (BI) by Radioactive Assay (Old_Cerep_13); settings: Compound concentration 10.0 uM
[23] = biological target: Galanin receptor type 1 (Homo sapiens) (UniProt P47211); test: Activity against GAL1/H in the Eurofins SafetyScreen44 (BI) by Radioactive Assay (Old_Cerep_21); settings: Compound concentration 10.0 uM
[24] = biological target: Nociceptin receptor (Homo sapiens) (UniProt P41146); test: Activity against ORL1/H in the Eurofins SafetyScreen44 (BI) by Radioactive Assay (Old_Cerep_28); settings: Compound concentration 10.0 uM
[25] = biological target: Platelet-derived growth factor receptor (Mus musculus) (UniProt P05622+P26618); test: Activity against PDGF/M in the Eurofins SafetyScreen44 (BI) (Old_Cerep_33); format: protein-complex assay; settings: Compound concentration 10.0 uM
[26] = biological target: Neuropeptide Y receptor type 2 (Homo sapiens) (UniProt P49146); test: Y2 Eurofins-Cerep binding assay; design: ligand concentration 0.015 nM; settings: Compound concentration 10.0 uM
Chain of Neuropeptide Y receptor type 2 (Homo sapiens) (P49146 whole entry): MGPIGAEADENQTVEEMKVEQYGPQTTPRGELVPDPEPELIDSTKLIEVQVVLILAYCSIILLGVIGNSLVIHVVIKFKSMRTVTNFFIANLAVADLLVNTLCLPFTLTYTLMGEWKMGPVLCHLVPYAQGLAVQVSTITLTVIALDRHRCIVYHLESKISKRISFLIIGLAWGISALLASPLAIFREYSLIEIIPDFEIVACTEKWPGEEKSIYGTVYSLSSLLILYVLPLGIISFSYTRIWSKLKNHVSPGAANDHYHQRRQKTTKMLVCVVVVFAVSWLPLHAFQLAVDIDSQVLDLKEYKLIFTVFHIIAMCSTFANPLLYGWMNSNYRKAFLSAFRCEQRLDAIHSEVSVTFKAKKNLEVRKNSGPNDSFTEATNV

[27] = biological target: Calcitonin-gene-related peptide receptor, CALCRL/RAMP1 (Homo sapiens) (UniProt O60894+Q16602); test: Agonist activity in the Eurofins SafetyScreen44 (BI) against CGRP/H by Scintillation counting (Old_Cerep_15); format: protein-complex assay
[28] = biological target: Peroxisome proliferator-activated receptor gamma (Homo sapiens) (UniProt P37231); test: Agonist activity in the Eurofins SafetyScreen44 (BI) against PPARG/H AG by Radioactive Assay (Old_Cerep_35); settings: Compound concentration 10.0 uM
Myeloblastin = Myeloblastin (Homo sapiens, UniProt P24158); test: PRTN3 inhibition assay
[29] = biological target: P2Y purinoceptor 1 (Rattus norvegicus) (UniProt P49651); test: Activity against P2Y/RA in the Eurofins SafetyScreen44 (BI) by Radioactive Assay (Old_Cerep_30); settings: Compound concentration 10.0 uM
Chain of P2Y purinoceptor 1 (Rattus norvegicus) (P49651 whole entry): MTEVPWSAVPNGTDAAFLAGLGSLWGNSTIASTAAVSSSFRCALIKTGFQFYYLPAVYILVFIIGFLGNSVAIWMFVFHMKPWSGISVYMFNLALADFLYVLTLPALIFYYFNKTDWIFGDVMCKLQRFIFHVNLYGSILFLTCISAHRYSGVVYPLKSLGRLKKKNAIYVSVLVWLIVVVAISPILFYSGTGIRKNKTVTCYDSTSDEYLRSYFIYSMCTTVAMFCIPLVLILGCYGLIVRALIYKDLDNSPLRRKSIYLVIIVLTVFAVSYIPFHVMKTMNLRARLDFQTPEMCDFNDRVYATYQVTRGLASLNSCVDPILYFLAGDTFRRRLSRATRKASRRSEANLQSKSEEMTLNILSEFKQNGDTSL

[30] = biological target: Adrenergic receptor alpha-2 (Rattus norvegicus) (UniProt P22086+P19328+P22909); test: Inhibitor of ALPHA2/NS/R in the Eurofins SafetyScreen44 (BI) by Radioactive Assay (Old_Cerep_6); format: protein assay
[31] = biological target: D(4) dopamine receptor (Homo sapiens) (UniProt P21917); test: D4.4 Eurofins-Cerep binding assay; settings: Compound concentration 10.0 uM
[32] = biological target: Alpha-2A adrenergic receptor (Homo sapiens) (UniProt P08913); test: Inhibitor of ALPHA2A/HU in the Eurofins Cerep SafetyScreen44 (BI) by Radioactive Assay (Cerep_13); settings: Compound concentration 10.0 uM
Chain of Alpha-2A adrenergic receptor (Homo sapiens) (P08913 whole entry): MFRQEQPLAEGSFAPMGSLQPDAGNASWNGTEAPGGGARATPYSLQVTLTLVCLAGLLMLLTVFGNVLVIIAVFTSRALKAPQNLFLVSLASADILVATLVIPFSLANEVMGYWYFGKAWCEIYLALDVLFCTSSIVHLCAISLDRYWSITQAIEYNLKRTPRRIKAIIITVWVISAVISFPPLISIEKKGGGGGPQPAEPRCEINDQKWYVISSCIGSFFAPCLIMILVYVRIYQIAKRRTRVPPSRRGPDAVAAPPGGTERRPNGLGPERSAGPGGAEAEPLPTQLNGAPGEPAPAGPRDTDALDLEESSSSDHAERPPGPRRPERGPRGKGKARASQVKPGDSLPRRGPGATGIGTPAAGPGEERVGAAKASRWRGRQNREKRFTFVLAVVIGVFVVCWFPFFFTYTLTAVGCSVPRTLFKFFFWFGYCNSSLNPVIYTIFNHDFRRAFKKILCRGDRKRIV

hERG (KCNH2) = hERG (KCNH2) (Homo sapiens, UniProt Q12809); test: Inhibitor of HERG_DOFETILIDE in the Eurofins Cerep SafetyScreen44 (BI) by Scintillation counting (Cerep_4094); design: scale not given: the % may be the effect or the level left; settings: probe [3H]dofetilide, compound concentration 10 uM, read-out: % Ctrl
[33] = biological target: Androgen receptor (Homo sapiens) (UniProt P10275); settings: Compound concentration 10.0 uM
Description: Activity against ANDROGEN/H in the Eurofins Cerep SafetyScreen44 (BI) by Radioactive Assay (Cerep_933)

[34] = biological target: 3',5'-cyclic-AMP phosphodiesterase 4D (Homo sapiens) (UniProt Q08499); test: Inhibitor of PDE4D2 in the Eurofins Cerep SafetyScreen44 (BI) by Scintillation counting (Cerep_4077); settings: Compound concentration 10.0 uM
[35] = biological target: Prostaglandin G/H synthase 2 (Homo sapiens) (UniProt P35354); test: Inhibitor of COX-2 in the Eurofins Cerep SafetyScreen44 (BI) by Fluorimetry (Cerep_4186); settings: Compound concentration 10.0 uM

Question: `CC(C)(O)CNC(=O)N1C(=O)N(c2cccc(C(F)(F)F)c2)C2=C(C(=O)CC2)[C@H]1c1ccc(C#N)cc1` was tested. Which residual activity (Rattus norvegicus [1]) did it give?
Answer: Its residual activity is 111%.

Question: And the residual activity [2]?
Answer: The residual activity was 105%.

Question: And the residual activity [3]?
Answer: Its residual activity is 114%.

Question: What about the residual activity [4] of the same compound?
Answer: Its residual activity is 103%.

Question: What about the residual activity [5] of the same compound?
Answer: The residual activity was 102%.

Question: What about the residual activity (Rattus norvegicus [6]) of the same compound?
Answer: The residual activity was 90%.

Question: What about the residual activity ([7]; Compound concentration 10.0 uM) of the same compound?
Answer: Its residual activity is 116%.

Question: And the residual activity ([7]; Compound concentration 30.0 uM)?
Answer: The residual activity was 92%.

Question: And the residual activity ([8]; Compound concentration 10.0 uM)?
Answer: The residual activity was 107%.

Question: And the residual activity ([8]; Compound concentration 30.0 uM)?
Answer: Its residual activity is 102%.

Question: And the residual activity [9]?
Answer: The residual activity was 105%.

Question: What about the residual activity [10] of the same compound?
Answer: The residual activity was 115%.

Question: What about the residual activity [11] of the same compound?
Answer: Its residual activity is 65%.

Question: What about the residual activity ([12]; Compound concentration 10.0 uM) of the same compound?
Answer: Its residual activity is 129%.

Question: What about the residual activity ([12]; Compound concentration 30.0 uM) of the same compound?
Answer: The residual activity was 118%.

Question: And the residual activity ([13]; Compound concentration 10.0 uM)?
Answer: The residual activity was 92%.

Question: And the residual activity ([13]; Compound concentration 30.0 uM)?
Answer: Its residual activity is 114%.

Question: And the residual activity ([14]; Compound concentration 10.0 uM)?
Answer: Its residual activity is 87%.

Question: And the residual activity ([14]; Compound concentration 30.0 uM)?
Answer: The residual activity was 93%.

Question: And the residual activity [15]?
Answer: Its residual activity is 114%.

Question: What about the residual activity [16] of the same compound?
Answer: The residual activity was 108%.

Question: And the residual activity [17]?
Answer: Its residual activity is 95%.

Question: And the residual activity [18]?
Answer: Its residual activity is 97%.

Question: And the residual activity ([19]; Compound concentration 10.0 uM)?
Answer: Its residual activity is 107%.

Question: What about the residual activity ([19]; Compound concentration 30.0 uM) of the same compound?
Answer: Its residual activity is 97%.

Question: What about the residual activity [20] of the same compound?
Answer: Its residual activity is 107%.

Question: What about the residual activity [21] of the same compound?
Answer: Its residual activity is 92%.

Question: What about the residual activity [22] of the same compound?
Answer: The residual activity was 106%.

Question: What about the residual activity [23] of the same compound?
Answer: The residual activity was 121%.

Question: And the residual activity [24]?
Answer: The residual activity was 95%.

Question: And the residual activity [25]?
Answer: The residual activity was 103%.

Question: And the residual activity [26]?
Answer: Its residual activity is 113%.

Question: What about the residual activity ([27]; Compound concentration 10.0 uM) of the same compound?
Answer: The residual activity was 108%.

Question: And the residual activity ([27]; Compound concentration 30.0 uM)?
Answer: Its residual activity is 113%.

Question: And the residual activity [28]?
Answer: The residual activity was 111%.

Question: What about the IC50 (Myeloblastin) of the same compound?
Answer: The IC50 was 367 nM (not active).

Question: What about the residual activity [29] of the same compound?
Answer: The residual activity was 88%.

Question: And the residual activity ([30]; Compound concentration 10.0 uM)?
Answer: The residual activity was 93%.

Question: What about the residual activity ([30]; Compound concentration 30.0 uM) of the same compound?
Answer: Its residual activity is 98%.

Question: What about the residual activity [31] of the same compound?
Answer: Its residual activity is 98%.

Question: What does the source list for `CC(C)(O)CNC(=O)N1C(=O)N(c2cccc(C(F)(F)F)c2)C2=C(C(=O)CC2)[C@@H]1c1ccc(C#N)cc1`?
Answer: residual activity [32]: 98%; activity at 10 µM (hERG (KCNH2)): 96% (not active); residual activity [33]: 101%; residual activity [34]: 114%; residual activity [35]: 101%
